Activity calls are given as the source filed them. The calls are words filed in the database; no cut-off is given here.
Columns and labels:
[1] = system: Plasmodium falciparum; experiment: Inhibition of Plasmodium falciparum recombinant falcipain-2 at 10 uM by microtiter plate spectrofluorimetry
[2] = Inhibition of Plasmodium falciparum recombinant falcipain-2 by microtiter plate spectrofluorimetry
[3] = system: Plasmodium falciparum; experiment: Inhibition of Plasmodium falciparum recombinant falcipain-2 at 10 uM after dialysis in refolding buffer for 8 hrs by SDS-PAGE
[4] = system: Plasmodium falciparum; experiment: Binding affinity to Plasmodium falciparum recombinant falcipain-2 by isothermal titration calorimetry
[5] = system: Plasmodium falciparum; experiment: Induction of Plasmodium falciparum recombinant falcipain-2 aggregation by FPLC gel filtration chromatography
[6] = system: Plasmodium falciparum; experiment: Induction of Plasmodium falciparum recombinant falcipain-2 aggregation by pseudonative gel analysis

| Structure (SMILES) | inhibition [1] [%] | Activity [3] | Activity [4] | Activity [5] | Activity [6] | IC50 [2] [µM] |
| --- | --- | --- | --- | --- | --- | --- |
| O=C(CSc1nnc(SCC(=O)Nc2ccc(Cl)cc2)s1)Nc1ccc(Cl)cc1 | 28.2 |  |  |  |  | 20 |
| O=C(CN1C(=O)S/C(=C/c2ccc(-c3ccc(Cl)c(C(=O)O)c3)o2)C1=O)Nc1ccc2c(c1)OCO2 | 41.4 |  |  |  |  | 10.9 |
| CC(C)C[C@H](NC(=O)[C@H]1O[C@@H]1C(=O)O)C(=O)NCCCCN=C(N)N [E-64] | 97.4 | Active | Active |  |  | 0.017 |
| CCn1c(CNC(=O)Cc2ccc(OC)cc2)nnc1SCC(=O)Nc1ccc(Cl)c(Cl)c1 | 25.9 |  |  |  |  | 20 |
| CC(Sc1nc(-c2ccccc2O)n[nH]1)C(=O)Nc1cccc(Cl)c1 (centres undefined) | 71.4 |  |  |  |  | 5.8 |
| O=C(NC(Cc1c[nH]c2ccccc12)C(=O)NCc1ccccc1)Oc1ccccc1 (centres undefined) | 29.4 |  |  |  |  | 29.7 |
| C=CCn1c(SCC(=O)Nc2sc3c(c2C(N)=O)CCC3)nc2scc(-c3ccccc3)c2c1=O | 53.1 | inactive | inactive | inactive | inactive | 2.4 |
| CCOC(=O)c1ccc(NC(=O)CSc2nnc(-c3ccccc3Br)n2CC)cc1 | 38.3 |  |  |  |  | 17.1 |
| O=C(Cc1nnc(NC(=O)c2ccc(Br)cc2)s1)NNC(=O)c1ccc(Br)cc1 | 20.2 |  |  |  |  | > 50 |
| Cc1c(Cl)cccc1-c1ccc(/C=N\Nc2nncn2/N=C/c2ccc(-c3cccc(Cl)c3C)o2)o1 | 56.5 |  |  |  |  | 6.4 |
| CC(=O)c1ccc(-c2ccc(/C=N/Nc3nc(N4CCCCC4)nc(N4CCCCC4)n3)o2)cc1 | 27.9 |  |  |  |  | 20 |
| COc1cccc(/C=N/NC(=O)c2ccn(Cc3ccc(Cl)cc3Cl)n2)c1O | 21.8 |  |  |  |  | > 50 |

The next lines start with results.

| inhibition [1] [%] | Activity [3] | Activity [4] | Activity [5] | Activity [6] | Structure (SMILES) | IC50 [2] [µM] |
| --- | --- | --- | --- | --- | --- | --- |
| 21.9 |  |  |  |  | CC(=O)c1ccc(NC(=O)CSc2nnc(COc3cccc4cccnc34)n2-c2ccccc2)cc1 | > 50 |
| 44 |  |  |  |  | Nc1nnc(SCC(=O)Nc2ccc3nc(SCc4cccc5ccccc45)sc3c2)s1 | 15 |
| 28.9 |  |  |  |  | O=C(Cn1nnc(-c2ccccc2)n1)N/N=C/c1ccccc1OCc1ccc(Cl)cc1Cl | 20 |
| 29 |  |  |  |  | Cc1ccc(NC(=O)CN2C(=O)S/C(=C/c3ccc(-c4ccc(Cl)c(C(=O)O)c4)o3)C2=O)cc1 | 20 |
| 20.2 |  |  |  |  | COc1cccc(OCC(=O)NC(=S)Nc2cccc(-c3nc4ncccc4o3)c2C)c1 | > 50 |
| 26.9 |  |  |  |  | COc1cc(NS(=O)(=O)c2ccc(NC(=O)c3cc(-c4cccc(C)c4)nc4ccccc34)cc2)ncn1 | 20 |
| 36.9 |  |  |  |  | O=C(COC(=O)c1ccc(S(=O)(=O)c2cccc(S(=O)(=O)N3CCOCC3)c2)cc1)c1ccccc1 | 20 |
| 21.3 |  |  |  |  | Cc1cccc(OCC(=O)Nc2nc(-c3ccc(S(=O)(=O)N4CCOCC4)cc3)cs2)c1 | > 50 |
| 20.2 |  |  |  |  | Cc1cc(C)nc(NS(=O)(=O)c2ccc(NC(=S)NC(=O)c3cccnc3)cc2)n1 | > 50 |
| 25.1 |  |  |  |  | CC(NC(=O)COc1ccc2ccccc2c1)C(=O)N/N=C/c1cccc(Cl)c1Cl (centres undefined) | > 50 |
| 20.3 |  |  |  |  | O=C(CCc1ccc(S(=O)(=O)NCCc2ccccc2)cc1)Nc1ccc2c(c1)OCCO2 | 54.2 |
| 21.9 |  |  |  |  | CCc1ccc(OCc2nnc(SCC(=O)Nc3ccc4ccccc4c3)o2)cc1 | > 50 |
| 48.5 |  |  |  |  | O=C(COc1ccc2ccccc2c1)NCC(=O)N/N=C/c1ccc(-c2ccc(Cl)c(Cl)c2)o1 | 13.2 |
| 36.6 |  |  |  |  | CCOC(=O)c1c(-c2ccc(-c3ccccc3)cc2)csc1NC(=O)CSc1nnc2sc3ccccc3n12 | 15 |
| 20.8 |  |  |  |  | COc1ccc(C(=O)NNC(=O)CSc2nnc(COc3ccc4ccccc4c3)n2C)cc1 | > 50 |
| 23.4 |  |  |  |  | CC(=O)c1ccc(NC(=O)CSc2nnc(COc3ccc4ccccc4c3)n2-c2ccccc2)cc1 | > 50 |
| 25.2 |  |  |  |  | O=C(COc1cccc(Cl)c1)Nc1nc(-c2ccc(S(=O)(=O)N3CCOCC3)cc2)cs1 | 20 |

From ChEMBL document CHEMBL1158475, “Identification of novel falcipain-2 inhibitors as potential antimalarial agents through structure-based virtual screening” (J Med Chem, 2009)
